In US10150734B2, “Solid forms of 2-(5-(3-fluorophenyl)-3-hydroxypicolinamido)acetic acid, compositions, and uses thereof” (Akebia Therapeutics, Inc., priority 2015, dated 2018):
≈ marks a conversion by molar mass, not a printed value. Entries after “also recorded” stand apart in the source; their conditions may differ. Where two headings read alike, the source gives them in different places.

Legend:
[1] = Single form slurry experiments of Forms A, D and G; format: physicochemical; details: ambient temperature, all tested conditions
Protocol: Single form slurry experiments were conducted for Forms A, D and G in three solvents stems, water, 1:2 v/v IPAc/heptane, and toluene to evaluate their physical form stability as a single polymorph (Table 14). Form A remained unchanged at six day time point. […] Form D remained unchanged for three days in water but converted to a mixture A and D at six days. In 1:2 IPAc/heptane and toluene, Form D converted to a mixture of A and D at three days and then Form A at six days. […] Form D is also a metastable polymorph but its conversion to Form A is kinetically slower than Form G. The conversion was the slowest in water partly due to low solubility.
Approximately 10-20 mg of Forms A, D and G were weighed into 8 mL clear vials equipped with magnetic stir bars (Table 14). Water, IPAc/Heptane (1:2 V/V) and toluene were used as the solvent systems for these competitive slurry experiments. Three selected solvents, 1.0 mL, were added to achieve free-flowing slurry and allowed to equilibrate at room temperature. All slurries will be isolated via centrifuge filtration after three day and six days of equilibration.

[2] = Thermal stability experiments (solid stored at 60 °C; XRPD and HPLC); details: for XRPD, aliquot time point Day 1 / XRPD, aliquot time point Day 7: solid stored at 60.0 °C; for Chemical stability / degradation by HPLC after storage at 60 °C for seven days (in words) / Physical form / XRPD pattern change after storage at 60 °C for seven days (in words): solid
[3] = Aqueous solubility (slurry in deionized water at room temperature, filtrate by HPLC, solids by XRPD); details: for Solubility / Aqueous Solubility: deionized water; for Solubility: equilibrated with stirring, filtrate by HPLC; for Aqueous Solubility: standard curve linear range 0.008 to 0.2 mg/mL; for Aqueous Solubility: XRPD (1 day) of solids: solid form after 1 day slurry in water
Protocol: Approximately 14-25 mg of Forms A, D and G were transferred to 20 mL vials equipped with magnetic stir bars. 1.0 mL of deionized water was added and the resulting free flowing slurry was allowed to equilibrate over 1 and 7 days period with stirring at room temperature. […] The filtrates were analyzed by HPLC to determine solubility.

[4] = Dynamic vapour sorption (moisture sorption) with XRPD of post-DVS material; format: physicochemical; details: for XRPD analysis of the post-DVS material: after DVS and drying at 60 °C for 2 hours; for Hygroscopicity (in words): from DVS moisture sorption; for Moisture Sorption (hygroscopicity in words): from uptake at 60% and 90% RH
Protocol: Dynamic vapour sorption experiment was carried out by first holding the sample at 40% RH and 25.0° C. until an equilibrium weight was reached or for a maximum of four hours. The sample was then subjected to an isothermal (at 25.0° C.) adsorption scan from 40 to 90% RH in steps of 10%. The sample was allowed to equilibrate to an asymptotic weight at each point for a maximum of four hours. Following adsorption, a desorption scan from […] to 5% RH (at 25.0° C.) was run in steps of 10% again allowing a maximum of four hours for equilibration to an asymptotic weight. An adsorption scan was then performed from 0 to 40% RH in steps of 10%. The sample was then dried for no less than two hours at 60.0° C. and the resulting solid analyzed by XRPD.

[5] = Competitive slurry of calcium, potassium and sodium salts in acetone; format: physicochemical; details: for Outcome of competitive slurry of salts (in words): acetone (50 μL water added for potassium and sodium salts), room temperature, one and seven days; for XRPD of solids, aliquot time point Day 1 / XRPD of solids, aliquot time point Day 7: RT
Protocol: Calcium, sodium, and potassium salts were used to setup different competitive slurry experiments. For competitive slurry of calcium salts (˜5-6 mg of Salt I and Salt II) were weighed into a 5.0 mL clear vial equipped with magnetic stir bars. These steps were repeated for potassium salt material (˜5-6.5 mg of Salt III) and sodium salt materials (˜2.6-6.4 mg of Salt IV and Salt V). […] All slurries, 400 μL, were filtered through 0.45 micron centrifuge filters after one and seven days of equilibration. The solids were analyzed by XRPD to check for salt conversion (Table 36).

[6] = Stability of crystalline materials from selected salts in different humidity (XRPD); format: physicochemical; details: for XRPD Post humidity exposure: 65% RH, RT; for XRPD Initial: before humidity exposure
Source text: Table 49 provides thermal stability data. Table 50 provides TGA thermal data.

[7] = Thermal holding (TGA thermal hold) experiments of salts, XRPD of resulting solid; format: physicochemical
Protocol: Salt I, Salt II, Salt III, Salt IV, Salt V, Salt VI, Salt VII, Salt VIII, Salt IX and Salt X were characterized to evaluate its physical form and stability.
In an effort to isolate a high melt crystal form, the material was held at 130° C. for 2 minutes followed by cooling to ambient temperature.
In an effort to isolate a high melt crystal form through a dehydration/recrystallization process, Salt IV was held at 130° C. for 2 minutes followed by cooling to ambient temperature.

[8] = slurry of potassium or sodium salts in acetone + 0.05 mL water
[9] = after thermal stress at 60.0 °C
[10] = parent material before thermal stress
[11] = competitive slurry of calcium salts (Salt I + Salt II) in acetone 1.0 mL

| SMILES | XRPD, aliquot time point Day 1 [2] | XRPD, aliquot time point Day 7 [2] | Chemical stability / degradation by HPLC after storage at 60 °C for seven days (in words) [2] | Moisture adsorbed at 60% RH ([4]; DVS, 25.0 °C, 60% RH) | Moisture Sorption 90% RH ([4]; DVS, 25.0 °C, 90% RH) | XRPD analysis of the post-DVS material [4] | Hygroscopicity (in words) [4] | Outcome of competitive slurry of salts (in words) [5] | XRPD of solids, aliquot time point Day 1 [5, 8] | XRPD of solids, aliquot time point Day 7 [5, 8] | XRPD Post humidity exposure [6] | XRPD Initial [6] | HPLC (% AUC) [2, 9] | Parent Material HPLC (% AUC) [2, 10] | Physical form / XRPD pattern change after storage at 60 °C for seven days (in words) [2] | Moisture Sorption ([4]; 60% RH) | hydration property ([4]; 60% RH) | Moisture Sorption ([4]; 90% RH) | hydration property ([4]; 90% RH) | Moisture Sorption (hygroscopicity in words) ([4]; DVS) | other results |
| --- | --- | --- | --- | --- | --- | --- | --- | --- | --- | --- | --- | --- | --- | --- | --- | --- | --- | --- | --- | --- | --- |
| O=C(O)CNC(=O)c1ncc(-c2cccc(F)c2)cc1O [Form G, 2-(5-(3-fluorophenyl)-3-hydroxypicolinamido)acetic acid] | form mixture; also recorded: A + G | only Form A | chemically stable | 0.4 wt % | 7.1 wt % | afforded Form A | slightly hygroscopic; also recorded: moderately hygroscopic | – | – | – | – | – | – | – | – | – | – | – | – | – | Outcome in the single form and competitive slurry experiments (in words) [1]: converted to Form A; HPLC (% AUC) ([2]; after storage at 60.0 °C): >99.9 % AUC; Parent Material HPLC (% AUC) ([2]; before storage at 60.0 °C): >99.3 % AUC; Solubility ([3]; water, thermodynamic from solid, Solubility, room temperature): 61 µg/mL (≈ 210 µM); Moisture Sorption 60% RH ([4]; DVS, 25.0 °C, 60% RH): 0.4%; Moisture Sorption 90% RH ([4]; DVS, 25.0 °C, 90% RH, listed as G): 7.1 wt %; Weight moisture uptake at 60% RH ([4]; DVS, 60% RH): about 0.4 % weight; Weight moisture uptake at 90% RH ([4]; DVS, 90% RH): about 7.1 % weight |
| O=C([O-])CNC(=O)c1ncc(-c2cccc(F)c2)cc1O.[K+] [Salt III] | Salt III | Salt III | – | 2.1 wt % | 4.5 wt % | – | moderately hydroscopic; also recorded: moderately hygroscopic | most stable polymorphs | Salt III | Salt III | Salt III + Salt IX | Salt III + Salt IX | 99.9 % AUC | 99.9 % AUC | no change in physical form | 60% RH: 2.1 wt % | hemi-(60% RH) | 90% RH: 4.5 wt % | to mono-hydrate | (moderately | XRPD Post thermal hold ([7]; 30-130 °C at 10 °C/min, hold 130 °C/2 min): Salt III; XRPD Post thermal hold, sample left on bench top, 24 hrs ([7]; 30-130 °C at 10 °C/min, hold 130 °C/2 min, then bench top 24 hrs): Salt III; XRPD of solid after thermal hold at 130 °C for 2 minutes ([7]; held at 130 °C for 2 minutes, cooled to ambient temperature): consistent with Salt III; Solid form by XRPD after 1 day ([3]; slurry in deionized water, room temperature, 1 day (24 hour)): converted from Salt III to Salt IX; Solid form by XRPD after 7 day ([3]; slurry in deionized water, room temperature, 7 days): remained as Salt IX |
| O=C([O-])CNC(=O)c1ncc(-c2cccc(F)c2)cc1O.O=C([O-])CNC(=O)c1ncc(-c2cccc(F)c2)cc1O.[Ca+2] [Salt I] | Salt I | Salt I | chemically stable | 1.0 wt % | 4.1 wt % | consistent XRPD pattern as the starting material | moderately hydroscopic; also recorded: moderately hygroscopic | most stable polymorphs | – | – | – | – | – | – | no change in physical form | 60% RH: 1.0 wt % | anhydrate (60% | 90% RH: 4.1 wt % | monohydrate | (moderately | XRPD of solids, aliquot time point Day 1 [5, 11]: Salt I; XRPD of solids, aliquot time point Day 7 [5, 11]: Salt I; Solubility ([3]; room temperature): 10 µg/mL; Aqueous Solubility ([3]; room temperature): 0.01 mg/mL; Aqueous Solubility: XRPD (1 day) of solids [3]: Salt I + Extra |
| O=C([O-])CNC(=O)c1ncc(-c2cccc(F)c2)cc1O.[Na+] [Salt VI] | – | – | – | 0.3 wt % | 0.7 wt % | consistent XRPD diffractogram | slightly hydroscopic; also recorded: slightly hygroscopic | – | – | – | – | – | – | – | – | 60% RH: 0.3 wt % | – | 90% RH: 0.7 wt % | – | – | hydration property [4]: anhydrate |
| O.O=C([O-])CNC(=O)c1ncc(-c2cccc(F)c2)cc1[O-].[Na+].[Na+] [Salt V] | Salt V | Salt V | – | 6.0 wt % | 6.4 wt % | mostly consistent with Salt V with a few missing peaks | moderately hydroscopic; also recorded: moderately hygroscopic | most stable polymorphs | Salt V + | Salt V | Salt V | Salt V | 99.9 % AUC | 99.9 % AUC | – | 60% RH: 6.0 wt % | – | 90% RH: 6.4 wt % | – | (moderately | XRPD Pre-thermal hold ([7]; before TGA thermal hold): Salt V; Aqueous Solubility ([3]; room temperature): 79.8 mg/mL; Aqueous Solubility: XRPD (1 day) of solids [3]: Salt V + Extra; hydration property [4]: monohydrate |
